For this experiment, the target named is IDH1-R132H recombinant protein (Homo sapiens, UniProt O75874, R132H). The experiment is described as follows: IDH1-R132H enzymatic assay (NADPH consumption, diaphorase/resazurin readout). The experiment is classed as biochemical. The protocol:
Assays were performed in a 384-well black plate. An aliquot of 250 nL of compound was incubated with 10 μL of 30 nM IDH1-R132H or 10 nM IDH1-R132C recombinant protein in assay buffer (50 mM Tris pH=7.5, 150 mM NaCl, 5 mM MgCl2, 0.1% (w/v) Bovine Serum Albumin, and 0.01% Triton X-100) in each well at 25° C. for 15 minutes. After the plate was centrifuged briefly, an aliquot of 10 μL of 2 mM α-ketoglutarate and 20 μM NADPH solution prepared in assay buffer was then added to each well and the reaction was maintained at 25° C. for 45 minutes. An aliquot of 10 μL of diaphorase solution (0.15 U/mL diaphorase and 30 μM Resazurin in assay buffer) was added to each well. […] The IC50 of a given compound was calculated by fitting the dose response curve of inhibition of NADPH consumption at a given concentration with the four parameter logistic equation.
In general terms: The colour change of resazurin is a common sign of viable cells or microbes.

Setting [1] is: read-out: Enzyme IDH1 R132H IC50 Range.

Read-outs that look alike come from different tables or passages of the source. Bounds are passed on as bounds.

Sequence of IDH1-R132H recombinant protein (O75874 whole entry R132H): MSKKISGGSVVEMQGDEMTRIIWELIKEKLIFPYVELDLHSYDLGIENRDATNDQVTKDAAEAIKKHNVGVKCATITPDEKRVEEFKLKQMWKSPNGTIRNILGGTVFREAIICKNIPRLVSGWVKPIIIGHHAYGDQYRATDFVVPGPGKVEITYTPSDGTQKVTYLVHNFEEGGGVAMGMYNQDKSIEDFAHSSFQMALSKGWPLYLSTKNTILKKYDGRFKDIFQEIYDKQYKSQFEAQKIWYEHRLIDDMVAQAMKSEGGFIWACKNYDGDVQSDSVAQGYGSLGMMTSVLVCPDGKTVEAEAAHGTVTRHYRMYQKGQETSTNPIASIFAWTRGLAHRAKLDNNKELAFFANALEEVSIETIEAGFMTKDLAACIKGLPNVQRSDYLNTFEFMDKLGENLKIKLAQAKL

As a reminder, the IC50 is the midpoint of a concentration-inhibition curve. Take `COc1cc(NCc2cc3ccc(C)cc3[nH]c2=O)ccc1C#N` [Compound I-54, 2-methoxy-4-{[(7-methyl-2-oxo-1,2-dihydroquinolin-3-yl)methyl]amino}benzonitrile]: the IC50 under setting [1] was in the range of 100 to 1000 nM. Still for that read-out and setting: in the case of `NC(=O)c1ccccc1NCc1cc2cc(Cl)ccc2[nH]c1=O` [Compound I-40, 2-{[(6-chloro-2-oxo-1,2-dihydroquinolin-3-yl)methyl]amino}benzamide] it was greater than 1000 nM; in that of `CCOc1ccc2[nH]c(=O)c(CNc3ccc(C#N)c(OC)c3)cc2c1` [Compound I-55, 4-{[(6-ethoxy-2-oxo-1,2-dihydroquinolin-3-yl)methyl]amino}-2-methoxybenzonitrile], 100 to 1000 nM.

With `N#Cc1ccc(NCc2cc3cc(Cl)ccc3[nH]c2=O)cc1OCC(N)=O` [Compound I-14, 2-(5-{[(6-chloro-2-oxo-1,2-dihydroquinolin-3-yl)methyl]amino}-2-cyanophenoxy)acetamide], the IC50 under setting [1] was greater than 1000 nM. Still for that read-out and setting: in the case of `COc1cc(NCc2cc3cc(Cl)cc(O)c3[nH]c2=O)ccc1C#N` [Compound I-96, 4-{[(6-chloro-8-hydroxy-2-oxo-1,2-dihydroquinolin-3-yl)methyl]amino}-2-methoxybenzonitrile] it was 100 to 1000 nM. Same read-out and setting: in the case of `COc1ccc2[nH]c(=O)c(CNc3ccc(-n4ccnc4)cc3)cc2c1` [Compound I-53, 3-({[4-(1H-imidazol-1-yl)phenyl]amino}methyl)-6-methoxy-1,2-dihydroquinolin-2-one] it was greater than 1000 nM; in that of `CNC(=O)c1ccc(NCc2cc3cc(Cl)ccc3[nH]c2=O)cc1` [Compound I-42, 4-{[(6-chloro-2-oxo-1,2-dihydroquinolin-3-yl)methyl]amino}-N-methylbenzamide], greater than 1000 nM; in that of `COc1cc(NCc2cc3ccc(Cl)cc3[nH]c2=O)ccc1C#N` [Compound I-29, 4-{[(7-chloro-2-oxo-1,2-dihydroquinolin-3-yl)methyl]amino}-2-methoxybenzonitrile], 100 to 1000 nM. The same measure, in the same setting: in the case of `COc1cc(N[C@H](C)c2cc3cc(Cl)ccc3[nH]c2=O)ccc1C#N` [Compound I-3, 4-{[(1R)-1-(6-chloro-2-oxo-1,2-dihydroquinolin-3-yl)ethyl]amino}-2-methoxybenzonitrile] it was greater than 1000 nM; in that of `COc1cc(NCc2cc3cc(C)ccc3[nH]c2=O)ccc1C#N` [Compound I-50, 2-methoxy-4-{[(6-methyl-2-oxo-1,2-dihydroquinolin-3-yl)methyl]amino}benzonitrile], 100 to 1000 nM. As to `N#Cc1ccc(NCc2cc3cc(Cl)ccc3[nH]c2=O)cc1C(F)(F)F` [Compound I-35, 4-{[(6-chloro-2-oxo-1,2-dihydroquinolin-3-yl)methyl]amino}-2-(trifluoromethyl)benzonitrile], the IC50 was 100 to 1000 nM. Turning to `COc1cc(NCc2cc3cc(I)ccc3[nH]c2=O)ccc1C#N` [Compound I-28, 4-{[(6-iodo-2-oxo-1,2-dihydroquinolin-3-yl)methyl]amino}-2-methoxybenzonitrile], under setting [1], the half-inhibitory concentration (IC50) is 100 to 1000 nM. Still for that read-out and setting: in the case of `C[C@H](Nc1ccc(C#N)cc1S(C)(=O)=O)c1cc2cc(Cl)ccc2[nH]c1=O` [Compound I-4, 4-{[(1S)-1-(6-chloro-2-oxo-1,2-dihydroquinolin-3-yl)ethyl]amino}-3-methanesulfonylbenzonitrile] it was greater than 1000 nM; in that of `COc1cc(NCc2cc3cc(Cl)c(O)cc3[nH]c2=O)ccc1C#N` [Compound I-57, 4-{[(6-chloro-7-hydroxy-2-oxo-1,2-dihydroquinolin-3-yl)methyl]amino}-2-methoxybenzonitrile], 10 to 100 nM; in that of `COc1cc(NCc2cc3cc(Cl)c(OCc4ccnc(C)c4)cc3[nH]c2=O)ccc1C#N` [Compound I-73, 4-[({6-chloro-7-[(2-methylpyridin-4-yl)methoxy]-2-oxo-1,2-dihydroquinolin-3-yl}methyl)amino]-2-methoxybenzonitrile], 10 to 100 nM. The same measure, in the same setting: in the case of `COc1cc(NCc2cc3cc(C)c(C)cc3[nH]c2=O)ccc1-n1cnnn1` [Compound I-20, 3-({[3-methoxy-4-(1H-1,2,3,4-tetrazol-1-yl)phenyl]amino}methyl)-6,7-dimethyl-1,2-dihydroquinolin-2-one] it was 100 to 1000 nM; in that of `O=c1[nH]c2ccccc2cc1CNc1ccc(-n2cnnn2)cc1` [Compound I-49, 3-({[4-(1H-1,2,3,4-tetrazol-1-yl)phenyl]amino}methyl)-1,2-dihydroquinolin-2-one], greater than 1000 nM; in that of `O=c1[nH]c2ccc(Cl)cc2cc1CNc1ccc(-n2ccnc2)cc1` [Compound I-39, 6-chloro-3-({[4-(1H-imidazol-1-yl)phenyl]amino}methyl)-1,2-dihydroquinolin-2-one], greater than 1000 nM. The same measure, in the same setting: in the case of `COc1cc(NCc2cc3cc(Cl)ccc3[nH]c2=O)ccc1S(C)(=O)=O` [Compound I-15, 6-chloro-3-{[(4-methanesulfonyl-3-methoxyphenyl)amino]methyl}-1,2-dihydroquinolin-2-one] it was greater than 1000 nM. For the molecule `COc1cc(NCc2cc3cc(C)c(C)cc3[nH]c2=O)ccc1C#N` [Compound I-17, 4-{[(6,7-dimethyl-2-oxo-1,2-dihydroquinolin-3-yl)methyl]amino}-2-methoxybenzonitrile], the IC50 under setting [1] is greater than 1000 nM. On the same count and under the same terms, in the case of `COc1ccc2[nH]c(=O)c(CNc3ccc(C#N)c(OC)c3)cc2c1` [Compound I-52, 2-methoxy-4-{[(6-methoxy-2-oxo-1,2-dihydroquinolin-3-yl)methyl]amino}benzonitrile] it was 100 to 1000 nM; in that of `COc1cc(NCc2cc3cc(Br)ccc3[nH]c2=O)ccc1C#N` [Compound I-23, 4-{[(6-bromo-2-oxo-1,2-dihydroquinolin-3-yl)methyl]amino}-2-methoxybenzonitrile], 10 to 100 nM; in that of `COc1cc(NCc2cc3cc(Cl)ccc3[nH]c2=O)ccc1F` [Compound I-41, 6-chloro-3-{[(4-fluoro-3-methoxyphenyl)amino]methyl}-1,2-dihydroquinolin-2-one], greater than 1000 nM. Still for that read-out and setting: in the case of `NC(=O)COc1ccc(NCc2cc3cc(Cl)ccc3[nH]c2=O)cc1` [Compound I-43, 2-(4-{[(6-chloro-2-oxo-1,2-dihydroquinolin-3-yl)methyl]amino}phenoxy)acetamide] it was greater than 1000 nM. With `O=c1[nH]c2ccc(Cl)cc2cc1CNc1ccccc1F` [Compound I-46, 6-chloro-3-{[(2-fluorophenyl)amino]methyl}-1,2-dihydroquinolin-2-one], the IC50 under setting [1] is greater than 1000 nM.

Regarding `N#Cc1ccc(NCc2cc3cc(Cl)ccc3[nH]c2=O)cc1OCCO` [Compound I-11, 4-{[(6-chloro-2-oxo-1,2-dihydroquinolin-3-yl)methyl]amino}-2-(2-hydroxyethoxy)benzonitrile], the half-inhibitory concentration (IC50) under setting [1] was in the range of 100 to 1000 nM. Still for that read-out and setting: in the case of `Cc1cc2cc(CNc3cccc(S(=O)(=O)NC4=NCCC4)c3)c(=O)[nH]c2cc1C` [Compound I-19, N-(3,4-dihydro-2H-pyrrol-5-yl)-3-{[(6,7-dimethyl-2-oxo-1,2-dihydroquinolin-3-yl)methyl]amino}benzene-1-sulfonamide] it was greater than 1000 nM; in that of `COc1cc(NCc2cc3cc(Cl)ccc3[nH]c2=O)ccc1-n1ccnc1` [Compound I-12, 6-chloro-3-({[4-(1H-imidazol-1-yl)-3-methoxyphenyl]amino}methyl)-1,2-dihydroquinolin-2-one], greater than 1000 nM.

The values above are taken from patent US10266495B2, “Phenyl quinolinone derivatives as mutant-isocitrate dehydrogenase inhibitors” (FORMA TM2, Inc., priority 2014, dated 2019).
